Here are results for 27 compounds from patent US9902702B2, “Spirocycloheptanes as inhibitors of rock” (BRISTOL-MYERS SQUIBB COMPANY, priority 2014, dated 2018).

By IC50 is commonly meant the midpoint of a concentration-inhibition curve.

Where a name gives a salt, the structure may show the parent alone.

ROCK2, sequence (O75116 whole entry, species assumed): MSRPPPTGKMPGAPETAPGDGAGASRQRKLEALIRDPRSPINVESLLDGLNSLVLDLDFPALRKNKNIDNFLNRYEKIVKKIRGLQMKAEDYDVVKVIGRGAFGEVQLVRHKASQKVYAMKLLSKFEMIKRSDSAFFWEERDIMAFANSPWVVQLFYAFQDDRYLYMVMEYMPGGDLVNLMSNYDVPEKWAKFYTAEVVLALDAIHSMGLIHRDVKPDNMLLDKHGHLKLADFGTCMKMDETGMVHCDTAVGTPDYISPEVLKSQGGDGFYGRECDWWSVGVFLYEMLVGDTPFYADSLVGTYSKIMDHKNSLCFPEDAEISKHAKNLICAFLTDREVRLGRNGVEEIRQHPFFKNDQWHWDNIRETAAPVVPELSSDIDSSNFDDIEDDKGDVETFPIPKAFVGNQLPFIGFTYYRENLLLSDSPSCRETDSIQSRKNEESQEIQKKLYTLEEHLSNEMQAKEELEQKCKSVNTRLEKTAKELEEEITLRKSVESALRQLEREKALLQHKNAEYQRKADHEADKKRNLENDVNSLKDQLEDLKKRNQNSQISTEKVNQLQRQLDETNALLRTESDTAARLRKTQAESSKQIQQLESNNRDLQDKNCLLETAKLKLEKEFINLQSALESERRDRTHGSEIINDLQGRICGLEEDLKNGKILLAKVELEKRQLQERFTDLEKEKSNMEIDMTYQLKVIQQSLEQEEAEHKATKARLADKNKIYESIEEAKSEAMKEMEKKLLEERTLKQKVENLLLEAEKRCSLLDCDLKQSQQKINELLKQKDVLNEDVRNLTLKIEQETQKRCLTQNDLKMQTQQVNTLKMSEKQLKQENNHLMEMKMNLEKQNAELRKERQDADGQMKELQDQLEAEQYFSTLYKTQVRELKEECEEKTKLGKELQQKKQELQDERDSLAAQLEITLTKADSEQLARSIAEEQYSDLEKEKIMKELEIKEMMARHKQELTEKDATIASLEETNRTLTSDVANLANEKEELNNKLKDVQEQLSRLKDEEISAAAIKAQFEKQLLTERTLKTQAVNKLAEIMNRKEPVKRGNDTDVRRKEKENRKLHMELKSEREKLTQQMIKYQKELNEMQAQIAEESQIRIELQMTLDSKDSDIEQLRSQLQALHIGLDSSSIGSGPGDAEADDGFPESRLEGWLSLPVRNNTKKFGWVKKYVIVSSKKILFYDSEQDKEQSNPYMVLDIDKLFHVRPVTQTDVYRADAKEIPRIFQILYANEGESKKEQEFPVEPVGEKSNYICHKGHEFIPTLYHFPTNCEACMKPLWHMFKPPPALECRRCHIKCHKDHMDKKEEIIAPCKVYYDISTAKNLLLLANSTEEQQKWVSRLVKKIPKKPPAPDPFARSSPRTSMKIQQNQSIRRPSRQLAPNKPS

For the first assay, the system named is spontaneously hypertensive rat, renal hypertensive rat and deoxycortisone acetate salt hypertensive rat models.
Assay: not given
As to conditions: control rats; cited from earlier work.
With `C[C@@H](N)[C@H]1CC[C@H](C(=O)Nc2ccncc2)CC1` [Example Y-27632], the blood pressure result was “only a minor effect on blood pressure”.

The assay is the same for the next values; noted with them: three rat models of hypertension; cited from earlier work.
For `C[C@@H](N)[C@H]1CC[C@H](C(=O)Nc2ccncc2)CC1` [Example Y-27632], the blood pressure result is reported as “significantly decrease blood pressure”.

The next assay has as its system rat stroke model.
Assay: not given
As to conditions: cited from earlier work.
`O=S(=O)(c1cccc2cnccc12)N1CCCNCC1` [fasudil]: the “infarct size and neurologic deficit” value is “reduce both the infarct size and neurologic deficit”.

The subject of a further assay is neointimal formation.
Assay: not given
Conditions: rats, balloon injury model; cited from earlier work.
Take `C[C@@H](N)[C@H]1CC[C@H](C(=O)Nc2ccncc2)CC1` [Example Y-27632]: the neointimal formation result was “inhibited neointimal formation”.

For the next assay, the system named is congestive heart failure in Dahl salt-sensitive rats.
Assay: not given
As to conditions: cited from earlier work.
For the compound `C[C@@H](N)[C@H]1CC[C@H](C(=O)Nc2ccncc2)CC1` [Example Y-27632], the “ventricular hypertrophy, fibrosis and function” value was “improve ventricular hypertrophy, fibrosis and function”.

A further assay concerns IL-1 beta-induced coronary stenosis.
Assay: not given
As to conditions: porcine model, long term treatment; cited from earlier work.
As to `O=S(=O)(c1cccc2cnccc12)N1CCCNCC1` [fasudil], the coronary constrictive remodeling result is recorded as “promote a regression of coronary constrictive remodeling” and the coronary stenosis result is listed as “progressively reduce coronary stenosis”.

The target in the next assay is ROCK2 (Homo sapiens, UniProt O75116). The assay is described as follows: ROCK assay: phosphorylation of FITC peptide substrate, LABCHIP 3000 mobility shift. The assay is classed as biochemical. Conditions: 5 μM ATP, 1.5 μM peptide substrate; read-out: ROCK2 Activity (ROCK IC50 range). The gist of the method:
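IC50 values come from curve-fitting percent kinase inhibition across a compound dilution series. The reaction is started with Rho kinase variant in HEPES pH 7.5 buffer with MgCl2, Brij-35 and DTT, with 5 μM ATP, 1.5 μM FITC-labelled peptide and under 2% DMSO. After EDTA quench, product and substrate are separated by microfluidic mobility shift.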
For `[H][C@]1(c2n[nH]c(=O)c3ccccc32)C[C@]2(C[C@@H](NC(=O)c3ccc(-c4cnn(CC)c4)c(F)c3)C2)C1` (stereo partly drawn) [Example 445, 4-(1-ethyl-1H-pyrazol-4-yl)-3-fluoro-N-((aR)-6-(4-oxo-3,4-dihydrophthalazin-1-yl)spiro[3.3]heptan-2-yl)benzamide], the IC50 was in the range of 15.1 to 100 nM.

Turning to `[H][C@]1(c2n[nH]c(=O)c3ccccc32)C[C@]2(C[C@@H](NC(=O)c3ccc(-c4cnn(C(C)C)c4)c(F)c3)C2)C1` (stereo partly drawn) [Example 446, 3-fluoro-4-(1-isopropyl-1H-pyrazol-4-yl)-N-((aR)-6-(4-oxo-3,4-dihydrophthalazin-1-yl)spiro[3.3]heptan-2-yl)benzamide], the IC50 was 2.01 to 5 nM.

On to `[H][C@]1(c2n[nH]c(=O)c3ccccc32)C[C@]2(C[C@@H](NC(=O)c3ccc(-c4cnn(C)c4C(F)(F)F)c(F)c3)C2)C1` (stereo partly drawn) [Example 447, 3-fluoro-4-(1-methyl-5-(trifluoromethyl)-1H-pyrazol-4-yl)-N-((aR)-6-(4-oxo-3,4-dihydrophthalazin-1-yl)spiro[3.3]heptan-2-yl)benzamide], for which the IC50 is 2.01 to 5 nM.

Turning to `[H][C@]1(c2n[nH]c(=O)c3ccccc32)C[C@]2(C[C@@H](NC(=O)c3ccc(-c4cnn(C5CC5)c4)c(F)c3)C2)C1` (stereo partly drawn) [Example 448, 4-(1-cyclopropyl-1H-pyrazol-4-yl)-3-fluoro-N-((aR)-6-(4-oxo-3,4-dihydrophthalazin-1-yl)spiro[3.3]heptan-2-yl)benzamide], the IC50 was in the range of 2.01 to 5 nM.

As to `[H][C@]1(c2n[nH]c(=O)c3ccccc32)C[C@]2(C[C@@H](NC(=O)c3ccc(-c4cnn(C5CCOCC5)c4)c(F)c3)C2)C1` (stereo partly drawn) [Example 449, 3-fluoro-N-((aR)-6-(4-oxo-3,4-dihydrophthalazin-1-yl)spiro[3.3]heptan-2-yl)-4-(1-(tetrahydro-2H-pyran-4-yl)-1H-pyrazol-4-yl)benzamide], the IC50 lay within 5.1 to 15 nM.

With `[H][C@]1(c2n[nH]c(=O)c3ccccc32)C[C@]2(C[C@@H](NC(=O)c3ccc(-c4cnn(C)c4)cn3)C2)C1` (stereo partly drawn) [Example 450, 5-(1-methyl-1H-pyrazol-4-yl)-N-((aR)-6-(4-oxo-3,4-dihydrophthalazin-1-yl)spiro[3.3]heptan-2-yl)picolinamide], the IC50 was in the range of 15.1 to 100 nM.

With `[H][C@]1(c2n[nH]c(=O)c3ccccc32)C[C@]2(C[C@@H](NC(=O)c3ccc(-c4cnn(C)c4)cc3)C2)C1` (stereo partly drawn) [Example 451, 4-(1-methyl-1H-pyrazol-4-yl)-N-((aR)-6-(4-oxo-3,4-dihydrophthalazin-1-yl)spiro[3.3]heptan-2-yl)benzamide], the half-inhibitory concentration (IC50) lay within 5.1 to 15 nM.

In the case of `[H][C@]1(c2n[nH]c(=O)c3ccccc32)C[C@]2(C[C@@H](NC(=O)c3cnc4cc(-c5cccnc5)ccn34)C2)C1` (stereo partly drawn) [Example 452, N-((aR)-6-(4-oxo-3,4-dihydrophthalazin-1-yl)spiro[3.3]heptan-2-yl)-7-(pyridin-3-yl)imidazo[1,2-a]pyridine-3-carboxamide], the IC50 lay in the range of 0.2 to 2 nM.

Consider `[H][C@]1(c2n[nH]c(=O)c3ccccc32)C[C@]2(C[C@@H](NC(=O)c3cn4ccc(-c5cccnc5)cc4n3)C2)C1` (some centres unmarked) [Example 453], for which the half-maximal inhibitory concentration (IC50) fell in the range of 15.1 to 100 nM.

On to `[H][C@]1(c2n[nH]c(=O)c3ccccc32)C[C@]2(C[C@@H](NC(=O)c3cn4ccc(-c5cnc(C)s5)cc4n3)C2)C1` (stereo partly drawn) [Example 454, 7-(2-methylthiazol-5-yl)-N-((aR)-6-(4-oxo-3,4-dihydrophthalazin-1-yl)spiro[3.3]heptan-2-yl)imidazo[1,2-a]pyridine-2-carboxamide], for which the IC50 was 15.1 to 100 nM.

For `Cc1ncc(-c2ccn3c(C(=O)NC4CC5(C4)CC(c4n[nH]c(=O)c6ccccc46)C5)cnc3c2)s1` [Example 455, 7-(2-methylthiazol-5-yl)-N-((aR)-6-(4-oxo-3,4-dihydrophthalazin-1-yl)spiro[3.3]heptan-2-yl)imidazo[1,2-a]pyridine-3-carboxamide], the IC50 was 2.01 to 5 nM.

Turning to `O=C1c2ccccc2CN1C1CC2(CC(c3n[nH]c(=O)c4ccccc34)C2)C1` [Example 457, 4-((aR)-6-(1-oxoisoindolin-2-yl)spiro[3.3]heptan-2-yl)phthalazin-1(2H)-one], the IC50 is 15.1 to 100 nM.

Take `O=C1N[C@@H](Cc2ccccc2)CN1[C@H]1CC2(C[C@H](c3n[nH]c(=O)c4ccccc43)C2)C1` (stereo partly drawn) [Example 458, 4-((aR)-6-((S)-4-benzyl-2-oxoimidazolidin-1-yl)spiro[3.3]heptan-2-yl)phthalazin-1(2H)-one]: the IC50 fell in the range of 100 to 2100 nM.

Take `[H][C@]1(c2n[nH]c(=O)c3ccccc32)C[C@@]2(C[C@H](N3C[C@@H](Cc4ccccc4)NC3=O)C2)C1` (stereo partly drawn) [Example 459, 4-((aR)-6-((R)-4-benzyl-2-oxoimidazolidin-1-yl)spiro[3.3]heptan-2-yl)phthalazin-1(2H)-one]: the IC50 fell in the range of 100 to 2100 nM.

For `O=c1[nH]nc([C@H]2CC3(C[C@H](Nc4ccccc4[N+](=O)[O-])C3)C2)c2ccccc12` (stereo partly drawn) [Example 460, 4-((aR)-6-((2-nitrophenyl)amino)spiro[3.3]heptan-2-yl)phthalazin-1(2H)-one], the IC50 lay within 15.1 to 100 nM.

On to `[H][C@]1(c2n[nH]c(=O)c3ccccc32)C[C@]2(C[C@@H](n3c(=O)[nH]c4ccccc43)C2)C1` (stereo partly drawn) [Example 461, 4-((aR)-6-(2-oxo-2,3-dihydro-1H-benzo[d]imidazol-1-yl)spiro[3.3]heptan-2-yl)phthalazin-1(2H)one], for which the IC50 lay within 100 to 2100 nM.

As for `O=C(N[C@H]1CC2(C1)C[C@H](c1n[nH]c(=O)c3ccccc31)C2)c1cnn2cccc(C3CC3)c12` (stereo partly drawn) [Example 462, 4-cyclopropyl-N-((aR)-6-(4-oxo-3,4-dihydrophthalazin-1-yl)spiro[3.3]heptan-2-yl)pyrazolo[1,5-a]pyridine-3-carboxamide], the IC50 is 15.1 to 100 nM.

As for `Cn1cc(-c2cnc(C(=O)N[C@H]3CC4(C3)C[C@H](c3n[nH]c(=O)c5ccccc53)C4)c(F)c2)cn1` (stereo partly drawn) [Example 463, 3-fluoro-5-(1-methyl-1H-pyrazol-4-yl)-N-((aR)-6-(4-oxo-3,4-dihydrophthalazin-1-yl)spiro[3.3]heptan-2-yl)picolinamide], the half-inhibitory concentration (IC50) was 15.1 to 100 nM.

Take `O=C(OC1CC2(C1)CC(c1n[nH]c(=O)c3ccccc13)C2)N1Cc2ccccc2C1` (centres unmarked) [Example 464, 6-(4-oxo-3,4-dihydrophthalazin-1-yl)spiro[3.3]heptan-2-yl isoindoline-2-carboxylate]: the IC50 lay in the range of 100 to 2100 nM.

`CS(=O)(=O)c1ccn2c(C(=O)N[C@H]3CC4(C3)C[C@H](c3n[nH]c(=O)c5ccccc53)C4)cnc2c1` (stereo partly drawn) [Example 465, 7-(methylsulfonyl)-N-((aR)-6-(4-oxo-3,4-dihydrophthalazin-1-yl)spiro[3.3]heptan-2-yl)imidazo[1,2-a]pyridine-3-carboxamide]: the IC50 lay within 5.1 to 15 nM.

On to `O=C(NC1CC2(C1)CC(c1n[nH]c(=O)c3ccccc13)C2)c1cnn2ccncc12` [Example 467, N-((aR)-6-(4-oxo-3,4-dihydrophthalazin-1-yl)spiro[3.3]heptan-2-yl)pyrazolo[1,5-a] pyrazine-3-carboxamide], for which the IC50 fell in the range of 15.1 to 100 nM.

As to `O=C(NC1CC2(C1)CC(c1n[nH]c(=O)c3ccccc13)C2)C1Cc2cc(Br)ccc2N1` [Example 468, 5-bromo-N-((aR)-6-(4-oxo-3,4-dihydrophthalazin-1-yl)spiro[3.3]heptan-2-yl)indoline-2-carboxamide,TFA], the IC50 fell in the range of 100 to 2100 nM.

On to `CC(C)(Oc1ccc2c(C(=O)N[C@H]3CC4(C3)C[C@H](c3n[nH]c(=O)c5ccccc53)C4)cnn2c1)C(=O)O` (stereo partly drawn) [Example 469, 2-methyl-2-((3-(((aR)-6-(4-oxo-3,4-dihydrophthalazin-1-yl)spiro[3.3]heptan-2-yl)carbamoyl)pyrazolo[1,5-a]pyridin-6-yl)oxy)propanoic acid], for which the IC50 was 15.1 to 100 nM.

As to `O=C(N[C@H]1CC2(C1)C[C@H](c1n[nH]c(=O)c3ccccc31)C2)c1cnc2cc(N3CCOCC3)ccn12` (stereo partly drawn) [Example 470, 7-morpholino-N-((aR)-6-(4-oxo-3,4-dihydrophthalazin-1-yl)spiro[3.3]heptan-2-yl)imidazo[1,2-a]pyridine-3-carboxamide, TFA], the IC50 was 0.2 to 2 nM.

Consider `[H][C@]1(c2n[nH]c(=O)c3ccccc32)C[C@]2(C[C@@H](NC(=O)c3cnc4cc(OC5CCC(F)(F)CC5)ccn34)C2)C1` (stereo partly drawn) [Example 471, 7-((4,4-difluoro-cyclohexyl)oxy)-N-((aR)-6-(4-oxo-3,4-dihydro-phthalazin-1-yl)spiro[3.3]heptan-2-yl)imidazo[1,2-a]pyridine-3-carboxamide, TFA], for which the IC50 was in the range of 2.01 to 5 nM.
